Source: US11572398B2, “GLP-1 derivatives and uses thereof” (Novo Nordisk A/S, priority 2014, dated 2023)
Read-outs that look alike come from different tables or passages of the source. Non-standard residues stand in square brackets, D forms with d. Residues, ends and D or L forms follow the SMILES beside them. Groups on a side chain read outwards from the residue. *: point of attachment. X2 = O=C(O)CCCCCCCCCCCCCCCCCCC(=O)NC[C@H]1CC[C@H](C(=O)N[C@@H](CCC(=O)NCCCN(CCCNC(=O)CC[C@H](NC(=O)[C@H]2CC[C@H](CNC(=O)CCCCCCCCCCCCCCCCCCC(=O)O)CC2)C(=O)O)CC(=O)*)C(=O)O)CC1; AEEA = NCCOCCOCC(=O)O; Aib = CC(C)(N)C(=O)O

Columns and labels:
[1] = target: T1, human GLP-1 receptor (Homo sapiens, UniProt P43220); assay: In vitro potency: CRE luciferase reporter gene assay in BHK cells expressing the human GLP-1 receptor; assay type: cell-based; details: whole cell reporter gene assay, BHK cells, human GLP-1 receptor; average of at least two replicates; read-out: EC50
T1 construct: expressed in transfected cells; host or cells: BHK cells (parent line BHKTS13), clone FCW467-12A; membrane preparation
T1 sequence (P43220 24-463): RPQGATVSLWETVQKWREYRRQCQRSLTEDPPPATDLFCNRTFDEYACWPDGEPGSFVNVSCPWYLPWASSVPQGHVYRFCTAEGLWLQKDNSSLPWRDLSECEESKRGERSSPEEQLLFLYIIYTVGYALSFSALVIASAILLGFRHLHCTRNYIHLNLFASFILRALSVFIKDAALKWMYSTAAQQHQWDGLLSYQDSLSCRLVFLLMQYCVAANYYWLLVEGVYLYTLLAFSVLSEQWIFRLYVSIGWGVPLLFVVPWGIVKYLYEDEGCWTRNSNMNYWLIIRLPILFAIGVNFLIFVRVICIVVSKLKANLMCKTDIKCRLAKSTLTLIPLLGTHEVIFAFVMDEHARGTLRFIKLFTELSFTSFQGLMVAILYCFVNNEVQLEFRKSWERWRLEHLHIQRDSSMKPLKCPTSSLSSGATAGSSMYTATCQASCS
Procedure: The purpose of this example is to test the activity, or potency, of the GLP-1 derivatives in vitro. The in vitro potency is the measure of human GLP-1 receptor activation in a whole cell assay.
In vitro potency was determined by measuring the response of the human GLP-1 receptor in a reporter gene assay. The assay was performed in a stably transfected BHK cell line that expresses the human GLP-1 receptor and contains the DNA for the cAMP response element (CRE) coupled to a promoter and the gene for firefly luciferase (CRE luciferase). When the human GLP-1 receptor is activated it results in the production of cAMP, which in turn results in the luciferase protein being expressed. When assay incubation is completed the luciferase substrate (luciferin) is added and the enzyme converts luciferin to oxyluciferin to produce bioluminescence. The luminescence is measured as the readout for the assay.
The cells were cultured at 5% CO2 in cell culture medium. They were aliquoted and stored in liquid nitrogen. Before each assay an aliquot was taken up and washed twice in PBS before being suspended at the desired concentration in the assay specific buffer.
The assay buffer consisted of 2% ovalbumin and 0.2% Pluronic F-68 in assay medium.
1) Cell stocks were thawed in a 37° C. water bath.
2) Cells were washed three times in PBS.
3) Cells were counted and adjusted to 5×10^3 cells/50 μl (1×10^5 cells/ml) in assay medium. A 50 μl aliquot of cells was transferred to each well in the assay plate.
4) Stocks of the test compounds and reference compounds were diluted to a concentration of 0.2 μM in assay buffer. […] 8) A 100 μl aliquot of steadylite plus reagent was added to each well of the assay plate. 9) Each assay plate was covered with aluminum foil to protect it from light and shaken for 30 min at room temperature. 10) Each assay plate was read in a BioTek Synergy 2 Multi-Mode Reader. Calculations and Results
The data from the BioTek Synergy 2 Multi-Mode Reader were transferred to GraphPad Prism software. The software performs a non-linear regression (log(agonist) vs response (three parameters)).
A minimum of two replicates were measured for each sample. The reported EC50 values are averages of all of the measured values for each compound.

[2] = target: T1, human GLP-1 receptor; assay: GLP-1 receptor binding: competitive binding assay (125I-GLP-1, SPA) on isolated membranes at low and high HSA
Procedure: The purpose of this example is to test the receptor binding of the GLP-1 derivatives in vitro. The receptor binding is a measure of affinity of a derivative for the human GLP-1 receptor.
Each derivative is added in a series of concentrations to isolated membranes containing the human GLP-1 receptor and displacement of the labelled ligand is monitored. The receptor binding is reported as the concentration at which half of the labelled ligand is displaced from the receptor, the IC50 value.
Buffer 1 consisted of 20 mM Na-HEPES plus 10 mM EDTA and pH was adjusted to 7.4. Buffer 2 consisted of 20 mM Na-HEPES plus 0.1 mM EDTA and pH was adjusted to 7.4. Assay buffer consisted of 50 mM HEPES supplemented with 5 mM EGTA, 5 mM MgCl2, 0.005% Tween 20 and pH was adjusted to 7.4. An 8% albumin stock consisted of HSA dissolved at 8% (w/v) in assay buffer. An 0.02% albumin stock consisted of HSA dissolved at 0.02% (w/v) in assay buffer.
The cells express the human GLP-1 receptor.
The cells were grown at 5% CO2 in DMEM, 10% fetal calf serum, 1% Pen/Strep (Penicillin/Streptomycin) and 1.0 mg/ml of the selection marker G418. To make a membrane preparation the cells were grown to approximately 80% confluence. The cells were washed twice in phosphate-buffered saline and harvested. The cells were pelleted using a brief centrifugation and the cell pellet was kept on ice. […] The homogenate was centrifuged for 15 minutes. The pellet was re-suspended (homogenised) in 10 ml buffer 2 and centrifuged. This step was repeated once more. The resulting pellet was re-suspended in buffer 2 and the protein concentration was determined. The membranes were aliquoted and stored at minus 80° C.
1. […] Assay continued with step 3.
2. For the receptor binding assay in the presence of high HSA (2%) 50 μl of the 8% albumin stock was added to each well of an assay plate. Assay continued with step 3.
4. Cell membrane aliquots were thawed and diluted to their working concentration. Fifty μl were added to each well in the assay plate.
5. WGA SPA beads were suspended in assay buffer at 20 mg/ml. The suspension was diluted to 10 mg/ml in assay buffer just prior to addition to the assay plate. Fifty μl were added to each well in the assay plate.
6. […] A 25 μl aliquot was reserved for measuring total counts/well.
7. The assay plate was incubated for 2 h at 30° C.
8. The assay plate was centrifuged for 10 min.
9. The assay plate was read in a Packard TopCount NXT instrument.
The data from the TopCount instrument were transferred to GraphPad Prism software. Individual replicates were analysed using non-linear regression. IC50 values were calculated by the software and reported in nM. The reported values are averages of all of the measured values for each compound.

[3] = high HSA (2.0% final assay concentration), read-out: High HSA IC50
[4] = low HSA (max. 0.001% final assay concentration), read-out: Low HSA IC50

Row | SMILES | EC50 [1] [nM] | IC50 [2, 3] [nM] | IC50 [2, 4] [nM]
1 | CC[C@H](C)[C@H](NC(=O)[C@H](Cc1ccccc1)NC(=O)[C@H](CCC(=O)O)NC(=O)[C@H](CCCNC(=N)N)NC(=O)[C@H](C)NC(=O)[C@H](C)NC(=O)[C@H](CCC(N)=O)NC(=O)[C@H](CCC(=O)O)NC(=O)[C@H](CCC(=O)O)NC(=O)[C@H](CC(C)C)NC(=O)[C@H](Cc1ccc(O)cc1)NC(=O)[C@H](CO)NC(=O)[C@H](CO)NC(=O)[C@@H](NC(=O)[C@H](CC(=O)O)NC(=O)[C@H](CO)NC(=O)[C@@H](NC(=O)[C@H](Cc1ccccc1)NC(=O)[C@@H](NC(=O)CNC(=O)[C@H](CCC(=O)O)NC(=O)C(C)(C)NC(=O)[C@@H](N)Cc1c[nH]cn1)[C@@H](C)O)[C@@H](C)O)C(C)C)C(=O)N[C@@H](C)C(=O)N[C@@H](Cc1c[nH]c2ccccc12)C(=O)N[C@@H](CC(C)C)C(=O)N[C@H](C(=O)N[C@@H](CCCNC(=N)N)C(=O)NCC(=O)N[C@@H](CCCNC(=N)N)C(=O)N[C@@H](CCCCNC(=O)CN(CCCNC(=O)CCOCCOCCOCCOCCOCCOCCOCCOCCOCCOCCOCCOCCNC(=O)[C@@H](N)CCCCNC(=O)[C@@H](N)CCCCNC(=O)CCCCCCCCCCCCCCCCCCC(=O)O)CCCNC(=O)CCOCCOCCOCCOCCOCCOCCOCCOCCOCCOCCOCCOCCNC(=O)[C@@H](N)CCCCNC(=O)[C@@H](N)CCCCNC(=O)CCCCCCCCCCCCCCCCCCC(=O)O)C(=O)O)C(C)C [Example 8, N{Epsilon-37}-[2-[bis[3-[3-[2-[2-[2-[2-[2-[2-[2-[2-[2-[2-[2-[2-[[(2S)-2-amino-6-[[(2S)-2-amino-6-(19-carboxynonadecanoylamino)hexanoyl]amino]hexanoyl]amino]ethoxy]ethoxy]ethoxy]ethoxy]ethoxy]ethoxy]ethoxy]ethoxy]ethoxy]ethoxy]ethoxy]ethoxy]propanoylamino]propyl]amino]acetyl]-[Aib8,Glu22,Arg26,Arg34,Lys37]-GLP-1-(7-37)-peptide] | 0.01 | 27 | 0.19
2 | CC[C@H](C)[C@H](NC(=O)[C@H](Cc1ccccc1)NC(=O)[C@H](CCC(=O)O)NC(=O)[C@H](CCCNC(=N)N)NC(=O)[C@H](C)NC(=O)[C@H](C)NC(=O)[C@H](CCC(N)=O)NC(=O)[C@H](CCC(=O)O)NC(=O)[C@H](CCC(=O)O)NC(=O)[C@H](CC(C)C)NC(=O)[C@H](Cc1ccc(O)cc1)NC(=O)[C@H](CO)NC(=O)[C@H](CO)NC(=O)[C@@H](NC(=O)[C@H](CC(=O)O)NC(=O)[C@H](CO)NC(=O)[C@@H](NC(=O)[C@H](Cc1ccccc1)NC(=O)[C@@H](NC(=O)CNC(=O)[C@H](CCC(=O)O)NC(=O)C(C)(C)NC(=O)[C@@H](N)Cc1c[nH]cn1)[C@@H](C)O)[C@@H](C)O)C(C)C)C(=O)N[C@@H](C)C(=O)N[C@@H](Cc1c[nH]c2ccccc12)C(=O)N[C@@H](CC(C)C)C(=O)N[C@H](C(=O)N[C@@H](CCCNC(=N)N)C(=O)NCC(=O)N[C@@H](CCCNC(=N)N)C(=O)N[C@@H](CCCCNC(=O)CN(CCCNC(=O)COCCOCCNC(=O)COCCOCCNC(=O)COCCOCCNC(=O)COCCOCCNC(=O)[C@@H](N)CCCCNC(=O)[C@@H](N)CCCCNC(=O)CCCNC(=O)CCCCCCCCCCCCCCCS(=O)(=O)O)CCCNC(=O)COCCOCCNC(=O)COCCOCCNC(=O)COCCOCCNC(=O)COCCOCCNC(=O)[C@@H](N)CCCCNC(=O)[C@@H](N)CCCCNC(=O)CCCNC(=O)CCCCCCCCCCCCCCCS(=O)(=O)O)C(=O)O)C(C)C [Example 14, N{Epsilon-37}-[2-[bis[3-[[2-[2-[2-[[2-[2-[2-[[2-[2-[2-[[2-[2-[2-[[(2S)-2-amino-6-[[(2S)-2-amino-6-[4-(16-sulfohexadecanoylamino)butanoylamino]hexanoyl]amino]hexanoyl]amino]ethoxy]ethoxy]acetyl]amino]ethoxy]ethoxy]acetyl]amino]ethoxy]ethoxy]acetyl]amino]ethoxy]ethoxy]acetyl]amino]propyl]amino]acetyl]-[Aib8,Glu22,Arg26,Arg34,Lys37]-GLP-1-(7-37)-peptide] | 0.0063 |  | 0.04
3 | CC[C@H](C)[C@H](NC(=O)[C@H](Cc1ccccc1)NC(=O)[C@H](CCC(=O)O)NC(=O)[C@H](CCCNC(=N)N)NC(=O)[C@H](C)NC(=O)[C@H](C)NC(=O)[C@H](CCC(N)=O)NC(=O)[C@H](CCC(=O)O)NC(=O)[C@H](CCC(=O)O)NC(=O)[C@H](CC(C)C)NC(=O)[C@H](Cc1ccc(O)cc1)NC(=O)[C@H](CO)NC(=O)[C@H](CO)NC(=O)[C@@H](NC(=O)[C@H](CC(=O)O)NC(=O)[C@H](CO)NC(=O)[C@@H](NC(=O)[C@H](Cc1ccccc1)NC(=O)[C@@H](NC(=O)CNC(=O)[C@H](CCC(=O)O)NC(=O)C(C)(C)NC(=O)[C@@H](N)Cc1c[nH]cn1)[C@@H](C)O)[C@@H](C)O)C(C)C)C(=O)N[C@@H](C)C(=O)N[C@@H](Cc1c[nH]c2ccccc12)C(=O)N[C@@H](CC(C)C)C(=O)N[C@H](C(=O)N[C@@H](CCCNC(=N)N)C(=O)NCC(=O)N[C@@H](CCCCNC(=O)COCCOCCNC(=O)COCCOCCNC(=O)COCCOCCNC(=O)COCCOCCNC(=O)COCCOCCNC(=O)COCCOCCNC(=O)CN(CCCNC(=O)CC[C@H](NC(=O)[C@H]1CC[C@H](CNC(=O)CCCCCCCCCCCCCCCCCCC(=O)O)CC1)C(=O)O)CCCNC(=O)CC[C@H](NC(=O)[C@H]1CC[C@H](CNC(=O)CCCCCCCCCCCCCCCCCCC(=O)O)CC1)C(=O)O)C(=O)NCC(=O)O)C(C)C [Example 30] (H-H[Aib]EGTFTSDVSSYLEEQAAREFIAWLVRGK([AEEA-AEEA-AEEA-AEEA-AEEA-AEEA-X2])G-OH; N-terminus and C-terminus assumed) |  | 4.1 | 
